# Measured values as given in ChEMBL document CHEMBL4004873, “SAR of amino pyrrolidines as potent and novel protein-protein interaction inhibitors of the PRC2 complex through EED binding” (Bioorg Med Chem Lett, 2017).
# Legend:
# Polycomb protein EED [1] = biological target: T1, Polycomb protein EED (Homo sapiens, UniProt O75530); assay: Inhibition of OG(488) labeled probe binding to GST-tagged EED (unknown origin) after 1 hr by LanthaScreen TR-FRET assay
# [2] = Intrinsic clearance in mouse liver microsomes at 0.5 uM by HPLC-MS/MS method; assay type: ADME, microsome; details: read-out: CLH
# Pfeiffer = assay: Antiproliferative activity against human Pfeiffer cells after 10 days by celltiter-glo luminescent cell viability Assay; assay type: functional, cell-based; details: 240 h
# Polycomb protein EED [3] = biological target: T1, Polycomb protein EED; assay: Inhibition of EED in human G401 cells assessed as reduction in H3K27 trymethylation measured after 6 days by alphaLISA method; assay type: cell-based
# Polycomb protein EED [4] = biological target: T1, Polycomb protein EED; assay: Inhibition of EED in human OCILY19 cells assessed as reduction in H3K27 trymethylation measured after 6 days by alphaLISA method; assay type: cell-based
# [5] = Permeability of the compound by PAMPA; assay type: physicochemical; details: read-out: permeability
# Liver = assay: Unbound intrinsic clearance in mouse liver microsomes at 0.5 uM by HPLC-MS/MS method; assay type: ADME, microsome
# T1 sequence (O75530 whole entry): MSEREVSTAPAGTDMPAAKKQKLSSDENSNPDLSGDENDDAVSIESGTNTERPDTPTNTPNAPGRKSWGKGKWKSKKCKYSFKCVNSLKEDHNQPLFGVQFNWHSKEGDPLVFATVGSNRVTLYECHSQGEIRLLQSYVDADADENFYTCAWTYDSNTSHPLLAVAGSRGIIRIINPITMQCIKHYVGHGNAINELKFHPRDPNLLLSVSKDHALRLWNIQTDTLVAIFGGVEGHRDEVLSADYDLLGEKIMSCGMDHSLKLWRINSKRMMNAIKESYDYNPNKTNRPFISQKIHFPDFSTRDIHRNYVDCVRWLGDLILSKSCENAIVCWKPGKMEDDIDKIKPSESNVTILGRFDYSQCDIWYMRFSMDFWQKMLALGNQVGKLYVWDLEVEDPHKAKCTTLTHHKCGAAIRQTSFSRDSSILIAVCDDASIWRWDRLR
compound,measurement,setting,value
CN(C)[C@H]1CN([C@@H]2CCc3cccc(F)c32)C[C@@H]1c1cn(C)c2ccccc12,Ki,Polycomb protein EED [1],129 nM
same,CLint scaled at 0.5 µM,[2],> 1000 L/h/kg
CN(C)C(=O)c1cccc2c([C@H]3CN(Cc4c(F)cccc4Br)C[C@@H]3N(C)C)cn(C)c12,Ki,Polycomb protein EED [1],23 nM
CN(C)[C@H]1CN([C@H]2CCc3cccc(F)c32)C[C@@H]1c1cn(C)c2ccccc12,IC50,Pfeiffer,1100 nM
same,IC50,Polycomb protein EED [3],290 nM
same,Ki,Polycomb protein EED [1],11 nM
same,CLint scaled at 0.5 µM,[2],> 1000 L/h/kg
same,IC50,Polycomb protein EED [4],660 nM
same,Papp,[5],1 to 3 ×10⁻⁶ cm/s
Cc1cccc(F)c1CN1C[C@H](c2cn(C)c3ccccc23)[C@@H](N(C)C)C1,IC50,Pfeiffer,3300 nM
same,IC50,Polycomb protein EED [3],2400 nM
same,Ki,Polycomb protein EED [1],12 nM
same,CLint scaled at 0.5 µM,[2],> 1000 L/h/kg
same,IC50,Polycomb protein EED [4],2400 nM
same,Papp,[5],1 to 3 ×10⁻⁶ cm/s
CN(C)[C@H]1CN([C@H]2COc3cccc(F)c32)C[C@@H]1c1cn(C)c2ccccc12,Ki,Polycomb protein EED [1],610 nM
CC(=O)N1CCN(c2ccc([C@H]3CN(C4CCc5cccc(F)c54)C[C@@H]3N(C)C)cc2)CC1 (mixture of isomers),IC50,Pfeiffer,33 nM
same,IC50,Polycomb protein EED [3],33 nM
same,Ki,Polycomb protein EED [1],0.29 nM
same,CL free,Liver,220 L/h/kg
same,IC50,Polycomb protein EED [4],50 nM
Cc1cccc(F)c1CN1C[C@H](c2cn(C)c3c(N4CCN(C)C(=O)C4)cccc23)[C@@H](N(C)C)C1 (mixture of isomers),IC50,Pfeiffer,98 nM
same,IC50,Polycomb protein EED [3],190 nM
same,Ki,Polycomb protein EED [1],0.74 nM
same,IC50,Polycomb protein EED [4],100 nM
CN(C)[C@H]1CN(C2CCc3cccc(F)c32)C[C@@H]1C1CCN(c2ccc(C(N)=O)cn2)CC1 (mixture of isomers),IC50,Pfeiffer,130 nM
same,IC50,Polycomb protein EED [3],230 nM
same,Ki,Polycomb protein EED [1],0.45 nM
same,CL free,Liver,120 L/h/kg
same,IC50,Polycomb protein EED [4],280 nM
Cc1cccc(F)c1CN1C[C@H](c2cn(C)c3c(C(=O)N4CC(F)C4)cccc23)[C@@H](N(C)C)C1 (mixture of isomers),IC50,Pfeiffer,65 nM
same,IC50,Polycomb protein EED [3],31 nM
same,Ki,Polycomb protein EED [1],1 nM
same,CL free,Liver,1100 L/h/kg
same,IC50,Polycomb protein EED [4],180 nM
Cc1cccc(F)c1CN1C[C@H](c2ccc(N3CCN(c4ccccn4)CC3)cc2)[C@@H](N(C)C)C1 (racemic),Ki,Polycomb protein EED [1],2.1 nM
same,CL free,Liver,9900 L/h/kg
CN(C)[C@H]1CN(Cc2nccn2C)C[C@@H]1c1cn(C)c2ccccc12 (racemic),Ki,Polycomb protein EED [1],> 50000 nM
CN(C)[C@H]1CN(Cc2c(F)cccc2Br)C[C@@H]1c1ccncc1 (racemic),Ki,Polycomb protein EED [1],49 nM
Cc1cccc(F)c1CN1C[C@H](c2ccc(-c3cnn(CC(N)=O)c3)cc2)[C@@H](N(C)C)C1 (racemic),Ki,Polycomb protein EED [1],2.6 nM
same,CL free,Liver,225 L/h/kg
Cc1cccc(F)c1CN1C[C@H](c2ccc(C3=CCN(C(=O)CS(C)(=O)=O)CC3)nc2)[C@@H](N(C)C)C1 (racemic),Ki,Polycomb protein EED [1],4.6 nM
same,CL free,Liver,268 L/h/kg
Cc1cccc(F)c1CN1C[C@H](C2CCN(c3cnc(C(N)=O)cn3)CC2)[C@@H](N(C)C)C1 (racemic),Ki,Polycomb protein EED [1],0.65 nM
CN(C)[C@H]1CN([C@H]2CCc3ncccc32)C[C@@H]1c1cn(C)c2ccccc12 (racemic),Ki,Polycomb protein EED [1],260 nM
COc1ccccc1CN1C[C@H](c2cn(C)c3ccccc23)[C@@H](N(C)C)C1 (racemic),CLint scaled at 0.5 µM,[2],> 1000 L/h/kg
CN(C)[C@H]1CN(Cc2c(F)cccc2Br)C[C@@H]1c1cn(C)c2ccccc12 (racemic),IC50,Pfeiffer,9500 nM
same,IC50,Polycomb protein EED [3],4100 nM
same,Ki,Polycomb protein EED [1],13 nM
same,CLint scaled at 0.5 µM,[2],> 1000 L/h/kg
same,IC50,Polycomb protein EED [4],8300 nM
same,Papp,[5],1 to 3 ×10⁻⁶ cm/s
Cc1cccc(F)c1CN1C[C@H](c2cn(CC(=O)N(C)C)c3ncccc23)[C@@H](N(C)C)C1 (racemic),Ki,Polycomb protein EED [1],5.3 nM
same,CL free,Liver,276 L/h/kg
Cc1cccc(F)c1CN1C[C@H](c2ccccc2)[C@@H](N(C)C)C1 (racemic),Ki,Polycomb protein EED [1],56 nM
same,CL free,Liver,1300 L/h/kg
CC(=O)N1CCN(c2ccc([C@H]3CN(Cc4c(C)cccc4F)C[C@@H]3N(C)C)cc2)CC1 (racemic),Ki,Polycomb protein EED [1],2.6 nM
same,CL free,Liver,170 L/h/kg
CCn1cc(CN2C[C@H](c3cn(C)c4ccccc34)[C@@H](N(C)C)C2)c(C)n1 (racemic),Ki,Polycomb protein EED [1],> 50000 nM
CN(C)[C@H]1CN([C@H]2CCCc3ccccc32)C[C@@H]1c1cn(C)c2ccccc12 (racemic),Ki,Polycomb protein EED [1],78 nM
CN(C)[C@H]1CN(Cc2c(F)cccc2Br)C[C@@H]1c1ccccc1 (racemic),Ki,Polycomb protein EED [1],78 nM
CN(C)[C@H]1CN(Cc2c(F)cccc2Br)C[C@@H]1C1CCCCC1 (racemic),Ki,Polycomb protein EED [1],230 nM
CN(C)[C@H]1CN(Cc2c(F)cccc2Br)C[C@@H]1C1CC1 (racemic),Ki,Polycomb protein EED [1],71 nM
CN(C)[C@H]1CN(Cc2ccn3ccnc3c2)C[C@@H]1c1cn(C)c2ccccc12 (racemic),Ki,Polycomb protein EED [1],> 50000 nM
CN(C)[C@H]1CN([C@H]2CCc3ccccc32)C[C@@H]1c1cn(C)c2ccccc12 (racemic),Ki,Polycomb protein EED [1],45 nM
Cc1cccc(F)c1CN1C[C@H](c2ccc(C(=O)N(C)C)cc2)[C@@H](N(C)C)C1 (racemic),Ki,Polycomb protein EED [1],18 nM
same,CL free,Liver,97 L/h/kg
CN(C)[C@H]1CN(Cc2c(F)cccc2Cl)C[C@@H]1c1cn(C)c2ccccc12 (racemic),IC50,Pfeiffer,3300 nM
same,IC50,Polycomb protein EED [3],6900 nM
same,Ki,Polycomb protein EED [1],53 nM
same,CLint scaled at 0.5 µM,[2],> 1000 L/h/kg
same,IC50,Polycomb protein EED [4],> 10000 nM
same,Papp,[5],1 to 3 ×10⁻⁶ cm/s
C[C@H]1CN(Cc2c(F)cccc2Br)C[C@@H]1N(C)C (racemic),Ki,Polycomb protein EED [1],380 nM
CN(C)[C@H]1CN(Cc2ccccc2)C[C@@H]1c1cn(C)c2ccccc12 (racemic),Ki,Polycomb protein EED [1],1500 nM
same,CLint scaled at 0.5 µM,[2],> 1000 L/h/kg
CN(C)[C@H]1CN(Cc2ccccc2F)C[C@@H]1c1cn(C)c2ccccc12 (racemic),Ki,Polycomb protein EED [1],330 nM
same,CLint scaled at 0.5 µM,[2],> 1000 L/h/kg
Cc1ccc(F)c(CN2C[C@H](c3cn(C)c4ccccc34)[C@@H](N(C)C)C2)c1 (racemic),Ki,Polycomb protein EED [1],160 nM
same,CLint scaled at 0.5 µM,[2],> 1000 L/h/kg
CN(C)[C@H]1CN(Cc2c(F)cccc2Br)C[C@@H]1C1CCOCC1 (racemic),Ki,Polycomb protein EED [1],59 nM
Cc1nc2ncccn2c1CN1C[C@H](c2cn(C)c3ccccc23)[C@@H](N(C)C)C1 (racemic),Ki,Polycomb protein EED [1],> 50000 nM
